Among the data in DBAASP are MIC values, retold here.

Values after ≈ are worked out from the molar mass of the structure shown.

What all share (assay): ≥ marks a high value that may be exact or a test limit, other limits are often not marked, values filed in µg/mL are converted to µM
The subject of test [1] is Candida albicans ATCC 10231.
The subject of test [2] is Pseudomonas aeruginosa ATCC 9027.
In test [3] the test system is Escherichia coli ATCC 25922.
Test [4] relates to Staphylococcus aureus KCTC 1621.
For test [5], the system named is Bacillus subtilis KCTC 3068.
The subject of test [6] is Staphylococcus epidermidis KCTC 1917.
In test [7] the test system is Escherichia coli KCTC 1682.
Test [8] has as its system Salmonella typhimurium KCTC 1926.
Test [9] concerns Pseudomonas aeruginosa KCTC 1637.
Test [10] concerns Candida albicans.
Test [11] deals with Staphylococcus aureus ATCC 25923.
Test [12] has as its system Klebsiella pneumoniae.
Test [13] relates to Bacillus subtilis.
Test [14] has as its system Pseudomonas aeruginosa ATCC 27853.
Test [15] has as its system Escherichia coli DH5alpha.
Test [16] concerns Escherichia coli K-12.
Test [17] relates to Staphylococcus aureus ATCC 6538.
For test [18], the system named is Escherichia coli NCTC 10418.

A word on the MIC: it is the lowest concentration found to suppress growth. A low value points to inhibition by little substance.

As to `N[C@@H](CC(=O)O)C(=O)N[C@@H](CC(=O)O)C(=O)N[C@@H](CC(=O)O)C(=O)N[C@@H](Cc1ccc(O)cc1)C(=O)O` [DDDY], the results for the minimal inhibitory concentration (MIC) in [1], in test [2] and in test [3] were 4290 µM (≈ 2260 µg/mL), 68700 µM (≈ 36200 µg/mL) and 8580 µM (≈ 4520 µg/mL), respectively.

Turning to `CC[C@H](C)[C@H](NC(=O)[C@H](CCCN=C(N)N)NC(=O)[C@H](Cc1c[nH]c2ccccc12)NC(=O)[C@H](CC(C)C)NC(=O)[C@@H](N)CCCN=C(N)N)C(=O)N[C@H](C(=O)N[C@H](C(=O)N[C@H](C(=O)N[C@@H](CCCN=C(N)N)C(=O)N[C@H](C(=O)N[C@@H](Cc1c[nH]c2ccccc12)C(=O)N[C@@H](CCCN=C(N)N)C(N)=O)C(C)C)[C@@H](C)CC)C(C)C)C(C)C` [RLWRIVVIRVWR], the MIC in test [4] is 15.1 µM (≈ 25 µg/mL); in [5], 30.3 µM (≈ 50 µg/mL); in [6] it was 15.1 µM (≈ 25 µg/mL); in test [7], 30.3 µM (≈ 50 µg/mL); in [8] it was 15.1 µM (≈ 25 µg/mL); in test [9], 15.1 µM (≈ 25 µg/mL).

For the compound `CC[C@H](C)[C@H](NC(=O)CNC(=O)[C@H](CC(N)=O)NC(=O)[C@@H](NC(=O)[C@H](C)NC(=O)[C@H](CC(N)=O)NC(=O)[C@H](CC(C)C)NC(=O)[C@H](C)NC(=O)[C@H](C)NC(=O)[C@H](CCCN=C(N)N)NC(=O)CNC(=O)[C@H](C)NC(=O)[C@H](C)NC(=O)[C@H](C)NC(=O)[C@H](C)NC(=O)[C@H](CCSC)NC(=O)[C@H](CC(=O)O)NC(=O)[C@H](CCCCN)NC(=O)[C@@H](NC(=O)[C@H](CO)NC(=O)[C@H](CO)NC(=O)[C@H](Cc1c[nH]c2ccccc12)NC(=O)[C@H](CC(C)C)NC(=O)[C@@H](N)CO)[C@@H](C)CC)C(C)C)C(=O)N[C@H](C(=O)N[C@@H](CC(N)=O)C(=O)N1CCC[C@H]1C(N)=O)C(C)C` [SLWSSIKDMAAAAGRAALNAVNGIVNP], the minimal inhibitory concentration (MIC) in [10] was above 190 µM; in test [3] it was 47.5 µM (≈ 128 µg/mL); in [11], 190 µM (≈ 512 µg/mL); in test [12], above 190 µM.

With `CC[C@H](C)[C@H](NC(=O)[C@H](C)NC(=O)[C@H](CCCCN)NC(=O)[C@H](C)NC(=O)[C@H](CCSC)NC(=O)CNC(=O)CNC(=O)[C@H](CC(C)C)NC(=O)[C@@H](NC(=O)[C@@H](NC(=O)[C@H](CC(N)=O)NC(=O)CNC(=O)[C@H](CCSC)NC(=O)[C@H](CCCN=C(N)N)NC(=O)[C@H](CCC(=O)O)NC(=O)[C@H](CC(=O)O)NC(=O)[C@@H](NC(=O)[C@H](CCCCN)NC(=O)[C@H](CCCCN)NC(=O)[C@H](CCC(N)=O)NC(=O)[C@@H](NC(=O)[C@H](CCCCN)NC(=O)[C@H](CCC(=O)O)NC(=O)[C@H](CCC(=O)O)NC(=O)[C@H](CC(N)=O)NC(=O)[C@@H](NC(=O)[C@H](Cc1c[nH]c2ccccc12)NC(=O)CN)[C@@H](C)CC)[C@@H](C)CC)[C@@H](C)CC)[C@@H](C)O)C(C)C)C(=O)N[C@H](C(=O)N[C@@H](Cc1cnc[nH]1)C(=O)N[C@@H](CCCCN)C(=O)N[C@@H](CCSC)C(=O)N[C@@H](C)C(=O)N[C@@H](CCCCN)C(=O)N[C@@H](CC(N)=O)C(=O)N[C@@H](CCC(=O)O)C(=O)N[C@@H](Cc1ccccc1)C(=O)N[C@@H](CCC(N)=O)C(=O)N[C@H]1CSSC[C@@H]2NC(=O)[C@H](Cc3ccc(O)cc3)NC(=O)CNC(=O)[C@H](CCCCN)NC(=O)[C@H](CCC(=O)O)NC(=O)CNC(=O)[C@H](CO)NC(=O)[C@H]([C@@H](C)O)NC(=O)[C@H](CCC(N)=O)NC(=O)[C@@H]3CSSC[C@@H](C(=O)NCC(=O)N[C@H](C(=O)N4CCC[C@H]4C(=O)N[C@@H](CC(C)C)C(=O)N[C@@H](CO)C(=O)N[C@@H](Cc4ccc(O)cc4)C(=O)O)[C@@H](C)O)NC(=O)[C@H](CCCCN)NC(=O)[C@H](CSSC[C@H](NC(=O)[C@H](CC(N)=O)NC(=O)CNC(=O)[C@H](CC(C)C)NC(=O)[C@H](CCSC)NC(=O)[C@H](CC(=O)O)NC(=O)[C@H](CCSC)NC(=O)[C@H](CC(N)=O)NC(=O)[C@H](C)NC(=O)[C@H](CCSC)NC1=O)C(=O)N[C@@H](CCC(=O)O)C(=O)N[C@@H](CCCCN)C(=O)N[C@@H](Cc1cnc[nH]1)C(=O)N3)NC(=O)[C@H](CCCCN)NC(=O)[C@H]([C@@H](C)O)NC(=O)CNC(=O)[C@H](Cc1cnc[nH]1)NC2=O)C(C)C` [GWINEEKIQKKIDERMGNTVLGGMAKAIVHKMAKNEFQCMANMDMLGNCEKHCQTSGEKGYCHGTKCKCGTPLSY], the MIC was 10 µM (≈ 83.5 µg/mL) in test [12] and 1 µM (≈ 8.35 µg/mL) in [13].

For `NCCCC[C@H](NC(=O)[C@H](CCCCN)NC(=O)[C@H](Cc1c[nH]c2ccccc12)NC(=O)[C@H](CCCCN)NC(=O)[C@@H]1CCCN1C(=O)[C@H](Cc1c[nH]c2ccccc12)NC(=O)[C@H](Cc1c[nH]c2ccccc12)NC(=O)[C@@H]1CCCN1C(=O)[C@H](CCCCN)NC(=O)[C@H](Cc1c[nH]c2ccccc12)NC(=O)[C@H](Cc1c[nH]c2ccccc12)NC(=O)[C@@H]1CCCN1C(=O)[C@H](CCCCN)NC(=O)[C@@H](N)CCCCN)C(=O)O` [KKPWWKPWWPKWKK], the MIC in test [4] amounted to 2 µM (≈ 4.02 µg/mL); in test [5] it was 1 µM (≈ 2.01 µg/mL); in test [6], 1 µM (≈ 2.01 µg/mL); in test [7], 2 µM (≈ 4.02 µg/mL); in test [8], 2 µM (≈ 4.02 µg/mL); in [9], 4 µM (≈ 8.04 µg/mL).

On to `CC[C@H](C)[C@H](N)C(=O)N[C@@H](CC(C)C)C(=O)NCC(=O)N[C@@H](CCCCN)C(=O)N[C@H](C(=O)N[C@@H](CC(C)C)C(=O)N[C@@H](CCCCN)C(=O)NCC(=O)N[C@H](C(=O)N[C@@H](CCCCN)C(=O)N[C@@H](CCCCN)C(=O)N[C@@H](CC(C)C)C(=O)N[C@@H](Cc1ccccc1)C(N)=O)[C@@H](C)CC)[C@@H](C)CC` [ILGKILKGIKKLF], for which the MIC came to 2 µM (≈ 2.94 µg/mL) in test [4]; 1 µM (≈ 1.47 µg/mL) in [6]; 2 µM (≈ 2.94 µg/mL) in [7]; 1 µM (≈ 1.47 µg/mL) in test [8]; 2 µM (≈ 2.94 µg/mL) in test [9].

On to `CC[C@H](C)[C@H](NC(=O)[C@H](Cc1ccccc1)NC(=O)[C@@H](NC(=O)[C@H](C)NC(=O)[C@H](CCCN=C(N)N)NC(=O)[C@H](CCCCN)NC(=O)[C@H](CCCN=C(N)N)NC(=O)[C@H](CCCCN)NC(=O)[C@H](C)NC(=O)[C@H](CC(C)C)NC(=O)[C@@H](NC(=O)[C@@H](N)Cc1ccc(O)cc1)C(C)C)[C@@H](C)CC)C(=O)O` [YVLAKRKRAIFI], for which the MIC in [14] was above 200 µM; in test [11], above 200 µM; in test [15], at least 200 µM; in [13] it was at least 200 µM.

For the compound `CC[C@H](C)[C@H](NC(=O)[C@H](CCCN=C(N)N)NC(=O)[C@H](CCC(N)=O)NC(=O)[C@@H](NC(=O)[C@@H](NC(=O)[C@H](CCCN=C(N)N)NC(=O)[C@H](CCCCN)NC(=O)[C@H](Cc1ccccc1)NC(=O)[C@H](CC(=O)O)NC(=O)CNC(=O)[C@H](CC(C)C)NC(=O)[C@@H](N)CC(C)C)[C@@H](C)CC)C(C)C)C(=O)N[C@@H](CCCCN)C(=O)N[C@@H](CC(=O)O)C(=O)N[C@@H](Cc1ccccc1)C(N)=O` [LLGDFKRIVQRIKDF], the minimum inhibitory concentration (MIC) in test [16] was at least 250 µM.

With `CC[C@H](C)[C@H](NC(=O)[C@H](CCCCN)NC(=O)[C@H](CCCCN)NC(=O)[C@H](Cc1ccccc1)NC(=O)[C@H](C)NC(=O)[C@H](CCCCN)NC(=O)[C@H](Cc1c[nH]c2ccccc12)NC(=O)[C@@H](N)CCCCN)C(=O)N[C@@H](CCC(=O)O)C(=O)N[C@@H](CCCCN)C(=O)N[C@@H](CCSC)C(=O)N[C@H](C(=O)N[C@@H](CCCN=C(N)N)C(=O)N[C@@H](CC(N)=O)C(=O)N[C@H](C(=O)N[C@@H](CCCN=C(N)N)C(=O)N[C@@H](CC(N)=O)C(=O)N[C@@H](CCCCN)C(=O)N[C@H](C(=O)N[C@H](C(=O)N[C@@H](CCCCN)C(N)=O)C(C)C)[C@@H](C)CC)[C@@H](C)CC)[C@@H](C)CC` [KWKAFKKIEKMIRNIRNKIVK], the MIC is 3 µM (≈ 8.01 µg/mL) in test [16], above 3 µM in [14] and above 12 µM in test [17].

With `CC[C@H](C)[C@H](NC(=O)CNC(=O)[C@@H]1CCCN1C(=O)[C@@H]1CCCN1C(=O)[C@H](Cc1ccccc1)NC(=O)[C@H](Cc1ccccc1)NC(=O)[C@@H]1CCCN1C(=O)[C@H](Cc1ccccc1)NC(=O)[C@@H](N)CO)C(=O)N[C@H]1CSSC[C@@H](C(=O)O)NC(=O)[C@H](CCCN=C(N)N)NC(=O)[C@H](CCCCN)NC(=O)[C@H](CC(C)C)NC(=O)[C@H](CCCN=C(N)N)NC(=O)[C@H](CCCCN)NC1=O` [SFPFFPPGICKRLKRC], in test [18], the MIC is at least 35 µM.
